Molecules are shown by their SMILES. Counter-ions that a name gives are not always drawn. Like-named read-outs stand apart in the source and are kept apart here.

Data on 47 molecules can be found in patent EP0645379A2, “Benzoylacetylene derivatives” (priority 1993, dated 1995).

For assay [1], the target named is T1, partially purified human EGF (epidermal growth factor) receptor tyrosine kinase (Homo sapiens, UniProt P00533).
T1 construct: The cell membrane fraction, a partially purified EGF receptor, was used as an enzyme source; endogenous in cells; host or cells: A431 human epidermoid carcinoma cells (membrane fraction, 10000xg pellet)
Put plainly: biochemical.

The subject of a further assay is KB cell. Put plainly: Cancer cell growth inhibitory activity (KB cells, MTT colorimetric determination). The format is cell-based, human. As for the experimental part:
In order to evaluate tyrosine kinase inhibitory activity and cancer cell growth inhibitory activity for tyrosine kinase inhibitor of the invention, tests were carried out in partially purified human EGF (epidermal growth factor) receptor tyrosine kinase activity detemination system and in a cell incubation system using human cancer cells. Furthermore, in order to compare and evaluate strength of inhibitory activity, relatively higher active ones amongst known tyrosine kinase inhibitors disclosed in patents or literatures were tested simultaneously.
Accordingly, the KB cell was used to evaluate the effect of test compounds on the growth of cultured cancer cells.
KB cells were plated on a 96-well dish (2.5x 10^3 cell/well) and cultured for 24 hours at 37 ° C under 5% C02 atmosphere in DMEM:F12 (1:1) medium containing 10% FCS, 50 µg/ml penicillin, and 50µg/ml streptomycin. To the culture medium was added a test compound dissolved in DMSO (DMSO final concentration < 0.1%), and the cells were cultured for three days under the same conditions. The test compound was exchanged every 24 hours together with the culture medium.
The amount of living cells were measured by calorimetric determination at wave lengths of 550 nm and 650 nm after developing colour by MTT (3-[4,5-Dimethylthiazol-2-yl]-2,5-diphenyltetrazolium bromide), in accordance with the method of Michael C. Alley et al. (Cancer Research 48 589, 1988).
Cancer cell growth inhibitory activity (CCGIA) was determined according to the following equation. [formula] Symbols "a" and "b" represent the colorimetric values determined in the cancer cell growth assay with and without the test compounds, respectively.

The mark [2] stands for this setting: Table-2; […]; 3) fumarate, 4) hydrochloride, read-out: Tyrosine kinase inhibitory activity (IC50).
The mark [3] stands for this setting: Homo sapiens, 72 h; Table-3; KB cells, three days culture, MTT; 3) fumarate, 4) hydrochloride.
Where [4] appears, read: Table-2 continued; […]; 4) hydrochloride, read-out: Tyrosine kinase inhibitory activity (IC50, μ).

T1 sequence (P01133 971-1023): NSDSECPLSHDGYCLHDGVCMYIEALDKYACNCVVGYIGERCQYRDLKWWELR
T1 sequence (P00533 25-1210): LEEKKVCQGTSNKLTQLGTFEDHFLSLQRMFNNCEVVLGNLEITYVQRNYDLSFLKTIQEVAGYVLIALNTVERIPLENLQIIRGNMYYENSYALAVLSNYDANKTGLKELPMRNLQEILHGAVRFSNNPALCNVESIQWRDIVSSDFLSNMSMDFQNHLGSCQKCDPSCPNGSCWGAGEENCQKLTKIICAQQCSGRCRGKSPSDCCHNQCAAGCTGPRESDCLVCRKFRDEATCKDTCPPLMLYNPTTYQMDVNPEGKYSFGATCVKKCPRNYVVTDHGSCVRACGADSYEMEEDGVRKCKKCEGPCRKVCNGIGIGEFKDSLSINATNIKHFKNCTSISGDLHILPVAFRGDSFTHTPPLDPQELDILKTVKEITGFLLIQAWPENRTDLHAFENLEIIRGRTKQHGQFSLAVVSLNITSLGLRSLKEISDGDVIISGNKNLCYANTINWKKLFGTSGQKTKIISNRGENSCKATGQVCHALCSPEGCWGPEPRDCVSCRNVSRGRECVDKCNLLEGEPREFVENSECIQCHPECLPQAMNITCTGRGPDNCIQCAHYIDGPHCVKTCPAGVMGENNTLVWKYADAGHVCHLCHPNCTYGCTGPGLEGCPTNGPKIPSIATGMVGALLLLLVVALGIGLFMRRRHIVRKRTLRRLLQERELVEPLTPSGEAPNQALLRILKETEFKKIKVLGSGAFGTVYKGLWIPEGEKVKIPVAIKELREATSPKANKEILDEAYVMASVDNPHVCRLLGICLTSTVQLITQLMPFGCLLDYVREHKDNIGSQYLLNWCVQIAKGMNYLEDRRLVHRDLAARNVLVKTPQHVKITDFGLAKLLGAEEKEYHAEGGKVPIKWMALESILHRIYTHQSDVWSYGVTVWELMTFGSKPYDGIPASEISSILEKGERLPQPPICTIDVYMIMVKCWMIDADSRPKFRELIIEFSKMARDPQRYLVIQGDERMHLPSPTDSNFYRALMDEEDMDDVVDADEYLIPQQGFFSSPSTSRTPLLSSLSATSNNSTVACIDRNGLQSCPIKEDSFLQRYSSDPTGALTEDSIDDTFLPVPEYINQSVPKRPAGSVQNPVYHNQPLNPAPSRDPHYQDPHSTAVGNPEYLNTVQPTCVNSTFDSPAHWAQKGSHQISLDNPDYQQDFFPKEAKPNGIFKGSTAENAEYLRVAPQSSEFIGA

Consider `COc1ccc(C(=O)C#CC(C)(C)O)cc1OC` [compound 613], for which the IC50 was found to be 150 nM in assay [1] (setting [2]) and 1410 nM with KB cell (setting [3]). `COc1ccc(C(=O)C#CC(C)(C)NCC(C)C)cc1OC` [compound 644]: the IC50 in assay [1] (setting [4]) was 66 nM; with KB cell (setting [3]) it was 2800 nM. Take `CC(C)(C#CC(=O)c1ccc2c(c1)OCO2)N1CCCCC1` [compound 482]: half-maximal inhibition in the assay on KB cell (setting [3]) (IC50) required 300 nM. With `COc1ccc(C(=O)C#CC(C)(C)N2CCCCC2)cc1` [compound 476], the IC50 with KB cell (setting [3]) is 550 nM. For `COc1ccc(C(=O)C#CC(C)(C)NCc2ccccc2)cc1OC` [compound 647], the figures for the IC50 (in assay [1] (setting [4]); in the assay with KB cell (setting [3])) were 190 nM and 790 nM, respectively.

Regarding `CCN(CC)C1(C#CC(=O)c2ccc(OC)c(OC)c2)CCCCC1` [compound 555], the IC50 in assay [1] (setting [2]) came to 1700 nM; in the assay on KB cell (setting [3]), 460 nM. Consider `COc1ccc(C(=O)C#CC(C)(C)NC(=O)OCc2ccc[n+](C)c2)cc1OC` [compound 650], for which, in the assay with KB cell (Table-3; KB cells, three days culture, MTT; 3) fumarate, 4) hydrochloride), 6500 nM corresponded to half-maximal inhibition (IC50). For the molecule `COc1ccc(C(=O)C#CC(C)(C)N)cc1OC` [compound 395, 4-amino-1-(3,4-dimethoxy)phenyl-1-oxo-4-methyl-2-pentyne hydrochloride], the IC50 in assay [1] (setting [2]) was found to be 39 nM.

For `COc1ccc(OC)c(C(=O)C#CC(C)(C)N2CCCCC2)c1` [compound 665], the IC50 in assay [1] (setting [4]) was determined as 1400 nM; in the assay with KB cell (setting [3]), 270 nM. On to `CC(C)(C#CC(=O)c1ccc(F)cc1)N1CCCCC1` [compound 483], for which, in the assay on KB cell (setting [3]), 340 nM corresponded to half-maximal inhibition (IC50). On to `CSc1ccc(C(=O)C#CC(C)(C)N2CCCCC2)cc1` [compound 484], for which the half-inhibitory concentration (IC50) in assay [1] (setting [2]) is 1300 nM; in the assay on KB cell (setting [3]), 410 nM. `CCN(CC)CC#CC(=O)c1ccc(OC)c(OC)c1` [compound 222]: the IC50 in assay [1] (setting [4]) is 13 nM; in the assay on KB cell (setting [3]), 840 nM. For the molecule `COc1ccc(C(=O)C#CCN(C(C)C)C(C)C)cc1OC` [compound 242], the figures for the IC50 (in assay [1] (setting [2]); in the assay with KB cell (setting [3])) were 35 nM and 2100 nM, respectively. Turning to `COc1ccc(C(=O)C#CC(C)(C)Nc2ccccc2)cc1OC` [compound 643], the concentration for half-maximal inhibition (IC50) turned out to be 120 nM in assay [1] (setting [4]) and 1100 nM in the assay on KB cell (setting [3]). Turning to `COc1ccc(C(=O)C#CC(C)(C)N2CCCCC2)cc1OC` [compound 477], the IC50 in assay [1] (setting [2]) came to 1300 nM; in the assay with KB cell (setting [3]), 640 nM. In the assay on KB cell (setting [3]), `N#CC(=Cc1ccc(O)c(O)c1)C(=O)Nc1ccccc1` [[drawing] 1)] gave a 50% inhibitory concentration (IC50) of 17000 nM. Still for that read-out and setting: the same measure for `CN(C)c1ccc(C(=O)C#CC(C)(C)N2CCCCC2)cc1` [compound 485]: 690 nM. Still for that read-out and setting: the same measure for `C#CC(=O)c1ccc(OC)c(OC)c1` [compound 2]: 13000 nM; for `COc1ccc(C(=O)C#CC(C)(C(C)C)N(C)CCCO)cc1OC` (centres unmarked) [compound 655]: 2100 nM. On to `COc1ccc(C(=O)C#CC(C)(NCCCO)C(C)C)cc1OC` (centres unmarked) [compound 654], for which the IC50 in assay [1] (setting [4]) is 940 nM; with KB cell (setting [3]), 1000 nM. With `CC(C)(C#CC(=O)c1ccc(S(C)(=O)=O)cc1)N1CCCCC1` [compound 666], the results for the IC50 (in assay [1] (setting [4]); in the assay on KB cell (setting [3])) were 2600 nM and 2200 nM, respectively. For the molecule `COc1ccc(C(=O)C#CC(C)(C)NCCc2c[nH]c3ccccc23)cc1OC` [compound 648], the IC50 in assay [1] (setting [4]) was determined as 37 nM; with KB cell (setting [3]) it was 1600 nM. `CC(C)(C#CC(=O)c1cc2c(cc1[N+](=O)[O-])OCO2)N1CCCCC1` [compound 501]: the IC50 in the assay on KB cell (setting [3]) was 1480 nM.

Take `COc1ccc(C(=O)C#CCN2CCCCC2)cc1OC` [compound 287]: the figures for the IC50 (in assay [1] (setting [2]); in the assay with KB cell (setting [3])) were 470 nM and 1600 nM, respectively.

For the molecule `COc1ccc(C(=O)C#CC(C)(C)NC(=O)OCc2ccc[n+]([O-])c2)cc1OC` [compound 651], the IC50 is 660 nM in assay [1] (setting [2]) and 3500 nM with KB cell (setting [3]).

As to `COc1ccc(C(=O)C#CC(C)(C)Nc2cccc(Cl)c2)cc1OC` [compound 642], the IC50 came out at 96 nM in assay [1] (setting [4]) and 1500 nM with KB cell (setting [3]). The molecule `CC(C)(C)c1cc(C(=O)C#CC(C)(C)N2CCCCC2)cc(C(C)(C)C)c1O` [compound 667] yielded an IC50 with KB cell (setting [3]) of 120 nM. For `CCN(CC)C(C)(C)C#CC(=O)c1ccc(OC)c(OC)c1` [compound 410], the values for the IC50 (in assay [1] (setting [2]); in the assay with KB cell (setting [3])) were 730 nM and 690 nM, respectively. Consider `COc1cccc(C(=O)C#CC(C)(C)N2CCCCC2)c1OC` [compound 664], for which the IC50 in assay [1] (setting [4]) is 930 nM; in the assay with KB cell (setting [3]), 680 nM.

For `COc1cc(C(=O)C#CC(C)(C)N2CCCCC2)cc2c1OCO2` [compound 500], the IC50 in assay [1] (setting [2]) was 350 nM; in the assay with KB cell (setting [3]), 480 nM. For `COc1ccc(C(=O)C#CC(C)(C)NS(=O)(=O)c2ccc(OC)c(OC)c2)cc1OC` [compound 652], the IC50 in the assay with KB cell (setting [3]) was determined as 1300 nM. In the case of `COc1ccc(C(=O)C#CC(C)(C)NC(=O)OCc2ccccc2)cc1OC` [compound 619], the IC50 in assay [1] (setting [2]) was determined as 660 nM; in the assay with KB cell (setting [3]), 1100 nM. Regarding `COc1ccc(C(=O)C#CC(=O)Nc2ccccc2)cc1OC` [compound 197], the IC50 in assay [1] (setting [2]) was determined as 1000 nM.

As for `COc1ccc(C(=O)C#Cc2ccccc2)cc1OC` [compound 19], the concentration for half-maximal inhibition (IC50) in assay [1] (setting [2]) stood at 670 nM; in the assay on KB cell (setting [3]) it was 2650 nM. `COc1ccc(C(=O)C#CC(C)(C)N(C)C)cc1OC` [compound 402]: the IC50 in assay [1] (setting [4]) came out at 330 nM; with KB cell (setting [3]) it was 930 nM. As to `COc1ccc(C(=O)C#CC(C)(C)Nc2cccnc2)cc1OC` [compound 646], the IC50 in assay [1] (setting [4]) was 300 nM; with KB cell (setting [3]), 2800 nM.

For `COc1ccc(C(=O)C#C[Si](C)(C)C)cc1OC` [compound 633], the IC50 in the assay on KB cell (setting [3]) was found to be 14500 nM. Regarding `COc1ccc(C(=O)C#Cc2ccccn2)cc1OC` [compound 69], the results for the IC50 (in assay [1] (setting [2]); in the assay with KB cell (setting [3])) were 240 nM and 1520 nM, respectively.

As for `COc1ccc(C(=O)C#CCNC(=O)OC(C)(C)C)cc1OC` [compound 388], the IC50 in assay [1] (setting [4]) is 69 nM; with KB cell (setting [3]), 1100 nM. `COc1ccc(C(=O)C#CC(C)(C)C)cc1OC` [compound 8]: in the assay with KB cell (setting [3]), 2200 nM corresponded to half-maximal inhibition (IC50). Regarding `COc1ccc(C(=O)C#CC(C)(C)Nc2c(C)cccc2C)cc1OC` [compound 645], the IC50 is 2200 nM in assay [1] (setting [4]) and 3400 nM in the assay with KB cell (setting [3]).

In the assay on KB cell (setting [3]), `CC(C)(C#CC(=O)c1ccc(Cl)c(Cl)c1)N1CCCCC1` [compound 480] yielded an IC50 of 510 nM. Regarding `COc1ccc(C(=O)C#CC(C)(C)NC(=O)OCc2cccnc2)cc1OC` [compound 649], the results for the IC50 (in assay [1] (setting [2]); in the assay with KB cell (setting [3])) were 960 nM and 1100 nM, respectively.

As to `COc1ccc(C(=O)C#CC(O)(C(C)C)C(C)C)cc1OC` [compound 627], half-maximal inhibition in the assay on KB cell (setting [3]) (IC50) required 680 nM. Consider `COc1ccc(C(=O)C#CCN2C(C)(C)CCCC2(C)C)cc1OC` [compound 313], for which the IC50 in assay [1] (setting [2]) amounted to 180 nM; with KB cell (setting [3]), 1000 nM. Take `CCN(CC)C(C)(C#CC(=O)c1ccc(OC)c(OC)c1)C(C)C` (centres unmarked) [compound 455]: the figures for the IC50 (in assay [1] (setting [2]); in the assay with KB cell (setting [3])) were 2900 nM and 560 nM, respectively. The like results for `CCOc1cc(C=C(C#N)C(N)=O)cc(CSc2ccccc2)c1O` [[drawing] 2)] were, in that order, 3200 nM and 52000 nM.
